# Reference: US10220051B2, “Combination of DNA repair inhibition with bendamustine or gemcitabine in the treatment of cancer” (Institute for Cancer Research, priority 2012, dated 2019)
# Entries after “also recorded” stand apart in the source; their conditions may differ.
# Experiments:
# Type in all cases: cell-based
# [1] = tested on: U2932 B cell lymphoma cells; assay: Cell cycle profile by FACS, U2932
# Protocol: (§1) DNA content analysis via flow cytometry. Following indicated drug treatments, cells were fixed with 70% ethanol. For analysis, cells were stained with propidium iodide, RNase A and sodium citrate. Cells were incubated at 37° C. for 30 minutes before being analyzed using a Becton Dickinson single laser three-fluorescence FACScan flow analyzer and Cell Quest software (Becton Dickinson). DNA content was acquired from 10,000 events and FlowJo software was used to process the data.
# [2] = tested on: mouse embryonic fibroblasts (WT and TDG−/−); assay: γ-H2AX immunofluorescence in WT and TDG−/− MEFs
# Protocol: (§2) Immunofluorescence. Cells were grown on coverslips, treated with the indicated drugs, fixed and stained. To detect DNA damage induction and repair, antibodies against 53BP1 (Bethyl) and γ-H2AX (Upstate) were used with Alexa Fluor-conjugated secondary antibodies (Invitrogen). All cells were counter-stained with DAPI (Molecular probes). Images were captured using a 40× or 100× objective mounted on an inverted microscope (Eclipse TE2000S; Nikon) with a CCD camera (Photometrics Cascade 512F; Roper Scientific) powered by NIS Elements AR (version 3.10) software (Nikon). For quantitative analysis, individual nuclei were identified using DAPI staining and used to define region of interests (ROI), which were then transposed onto other channels. The sum intensity per nuclei from a minimum of 50 nuclei was averaged±SEM.
# Hela cells [3] = assay: EdU incorporation (DNA synthesis); settings: EdU 10 μM, 12 h
# Protocol: EdU incorporation. Hela cells were treated with nocodazole for 14 h after which time mitotic cells were collected by mechanical shake-off. Cells were washed twice with medium and re-plated. BDM and EdU (10 μM) (Click-IT™ EdU imaging kit, Invitrogen) were added 2 h later, when the cells were fully adherent and still in G1, and incubated for an additional 12 h. Cells were fixed and stained according to the manufacturer's protocol. Quantification of EdU incorporation was performed as described for antibody detection.
# Hela cells [4] = assay: Immunofluorescence of DNA damage foci (γ-H2AX, 53BP1, RPA)
# Protocol: as §2
# Hela cells [5] = assay: Cell cycle profile by FACS (DNA content), Hela
# Protocol: as §1
# Hela cells [6] = assay: Clonogenic assay, Hela; settings: for colony formation relative to control (100%): washout, ~10 days
# Protocol: Clonogenic assay. Hela cells were seeded into 6 well plates at a density of 1000 cells per well. Cells were treated for 24 h. Cells were then treated with and without UCN-01 (100 nM) for 3 h. All drugs were washed out and cells were left to grow for approximately 10 days. Cells were fixed using Acetic acid:methanol:H2O, (10:10:80), dried and stained with 0.4% crystal violet in 20% ethanol. Qualitative images of representative results are presented. For quantification, colonies were solubilized (1% acetic acid, 30% ethanol) and absorbance values at 595 nm were read. Values are expressed as a percentage relative to untreated cells, with untreated cells set to 100%±SD. Experiments were conducted in triplicate, three independent times. Student's two-tailed unpaired t test was conducted for statistics.
# [7] = tested on: Hela cells stably expressing GFP:histone H2B; assay: Time-lapse video microscopy of mitosis
# Protocol: Time-lapse video microscopy. Hela cells stably expressing GFP:histone H2B were seeded into 6 well plates and synchronized in S phase using thymidine (2 mM). […] Where appropriate, UCN-01 (100 nM) was added to wells before being supplemented with HEPES (25 mM), layered with mineral oil (Sigma) and placed into a housing chamber which maintained the temperature at 37° C. Using a Nikon TE2000 microscope (Nikon) controlled by MetaMorph software (Molecular Devices), brightfield and fluorescent images were captured every 5 minutes for up to 48 h. Individual movies were analyzed manually and a minimum of 100 cells per treatment scored for the indicated measurements. For montages, selected frames representing different cell morphologies are presented.
# Hela cells [8] = assay: Cell viability MTS assay, Hela; settings: for cell viability, BDM alone: 3.125-200 μM, 48 h continuous
# Protocol: (§3) Cell viability and apoptosis assays. Hela cells were seeded into 96 well plates at a density of 1500 cells per well. Cells were treated with BDM (3.125-200 μM) for 24 h. After this time cells were additionally treated either with UCN-01 (100 nM), Chk2 inhibitor (100 nM) or Gö6976 (200 nM) for an additional 24 h. MTS reagent (CellTiter 96® AQueous Proliferation Assay, Promega) was added to each well for 4 h before the absorbance values at 490 nm was read. Experiments were conducted in triplicate, 3 independent times. Data presented are the average absorbance values, relative to control±SD. For apoptosis determination, cells seeded and treated as stated above were stained with Guava Nexin Reagent® (Millipore). Analysis was conducted using the Easycyte module and Cytosoft Software® (Millipore). Experiments were conducted 3 independent times, collecting 2000 events each time. Data shown is the average±SD.
# [9] = tested on: PANC1, BXPC3, MCF-7, MDA-MB-435, OVCAR 5 and 10 cells; assay: Cell cycle profile by FACS, panel of cancer cell lines; settings: 24 h
# Protocol: as §1
# Hela cells [10] = assay: Chk1 phosphorylation (Ser-345) in lysates
# Protocol: Hela cells were treated for 24 or 48 h continuous treatment or of either 50 or 200 μM BDM or 24 h followed by 24 h in the absence of drugs. […] Quantification of the average fluorescence per nucleus is shown on the right. For γ-H2AX: *P=8.9×10^−28 vs. untreated 24 h; **P=2.1×10^−31 vs. untreated 24 h; †P=5.2×10^−45 vs. untreated 48 h. For 53BP1: *P=4.3×10^−20 vs. untreated 24 h; **P=4.2×10^−41 vs. untreated 24 h; †P=2.0×10^−52 vs. untreated 48 h. For RPA: *P=2.5×10^−16 vs. untreated 24 h; **P=2.8×10^−52 vs. untreated 24 h; †P=3.3×10-^58 vs. untreated 48 h. […] Total Chk1 and alpha tubulin were used to determine loading.
# Hela cells [11] = assay: Apoptosis assay (Guava Nexin Reagent); settings: BDM 200 μM followed by Chk1 inhibitor; p<0.01 vs. control
# Protocol: as §3
# Hela cells [12] = assay: Electron microscopy of mitotic chromosomes
# Protocol: Electron microscopy. Hela cells were seeded into 6 cm dishes, synchronized with thymidine (2 mM) and treated with BDM 50 μM, 200 μM or gemcitabine (100 μM) for 18 h. Cells treated with UCN-01 (100 μM) for an addition 9 h to obtain mitotic cells were fixed with glutaraldehyde solution (3%, pH 7.4). Samples were prepared for electron microscopy analysis.
# Hela cells [13] = assay: Metaphase spreads
# Protocol: Metaphase spreads. Mitotic cells were collected from untreated and bendamustine at 50 μM or 200 μM+UCN-01 (100 nM) treatments. For visualizing, cells were dropped onto a glass slides and stained with DAPI. Mitotic spreads were viewed and imaged using fluorescence microscopy. Images shown are representative of those observed.
# SK28 cells [14] = assay: SK28 clonogenic assay; settings: SK28, concentration-dependent, quadruplicate
# Protocol: (§4) Tests were conducted in quadruplicate.
# SK28 cells [15] = assay: SK28 cell viability (MTS assay); settings: SK28, concentration-dependent, quadruplicate
# Protocol: as §4
# [16] = 50 μM BDM 24 h, then UCN-01 100 nM
smiles,measurement,setting,value
"Cn1c(CCCC(=O)O)nc2cc(N(CCCl)CCCl)ccc21 [BDM, Bendamustine]",cell cycle arrest,[1]; 10 μM BDM,induced a G2 arrest
same,cell cycle arrest,[1]; 25 μM BDM,S phase arrest
same,cell cycle arrest,[1]; 50 μM BDM,induced an S phase arrest
same,"γ-H2AX staining, TDG−/− MEFs versus wildtype MEFs","[2]; 10 μM BDM, 24 h",increased γ-H2AX staining
same,"repair of DNA damage, TDG−/− MEFs versus wildtype MEFs",[2]; 48 h continuous treatment,reduced ability to repair the DNA damage
same,EdU incorporation relative to untreated (100%),Hela cells [3]; 50 μM BDM,98.0±4.1%
same,EdU incorporation relative to untreated (100%),Hela cells [3]; 200 μM BDM,64.7±2.6%
same,"γ-H2AX, RPA and 53BP1 foci","Hela cells [4]; 50 μM BDM 24 h, then 24 h after washout",reduced to levels comparable to untreated cells
same,"γ-H2AX, RPA and 53BP1 foci","Hela cells [4]; 50 μM BDM, 24 h","accumulated γ-H2AX, RPA and 53BP1 foci"
same,"γ-H2AX, RPA and 53BP1 staining","Hela cells [4]; 50 μM BDM, 48 h continuous",reduced to control cells
same,"γ-H2AX, RPA and 53BP1 foci","Hela cells [4]; 200 μM BDM 24 h, after drug removal",foci persisted after drug was removed
same,"γ-H2AX, RPA and 53BP1 foci","Hela cells [4]; 200 μM BDM, 24 h","an increase in γ-H2AX, RPA and 53BP1"
same,DNA damage foci,"Hela cells [4]; 200 μM BDM, 48 h continuous",not reduced
same,"53BP1, RPA and γ-H2AX nuclear foci",Hela cells [4]; dose dependence,increased in a dose-dependent manner
same,cell cycle profile,"Hela cells [5]; 50 μM BDM 24 h, then another 24 h with or without BDM",displayed a normal cell cycle profile
same,cell cycle arrest,"Hela cells [5]; 200 μM BDM, after washout or 48 h continuous","maintained after drug washout, or 48 h continuous treatment"
same,cell cycle profile,"Hela cells [5]; Hela synchronized in G1, 200 μM BDM, 24 h",arrested in S phase
same,cell cycle profile,"Hela cells [5]; Hela synchronized in G1, 25-100 μM BDM, 24 h",accumulated as 4N DNA content indicating a G2/M delay
same,colony formation relative to control (100%),Hela cells [6]; 50 μM BDM 24 h,87.8±11.2%
same,reduction in clonogenic survival,Hela cells [6]; 200 uM BDM,95%
same,colony formation relative to control (100%),Hela cells [6]; 200 μM BDM 24 h,3.5±1.3%
same,fate of cells forced into mitosis,[7]; 50 μM BDM + Chk1 inhibition,progress through mitosis relatively normally
same,percentage of cells entering mitosis,"[7]; 50 μM BDM, over 24 h",caused a reduction in the percentage of cells entering mitosis
same,mitotic index,[7]; 200 μM BDM,reduced mitotic index
same,fate of cells forced into mitosis,[7]; 200 μM BDM + Chk1 inhibition,majority failing to exit and instead die in mitosis
same,mitotic figures,[7]; 200 μM BDM + Chk1 inhibition,highly abnormal
same,"cell viability, BDM alone",Hela cells [8],did not reduce cell viability as compared to control treatment
same,"cell viability, BDM alone",Hela cells [8]; listed as bendamustine,not particularly effective at killing Hela cells
same,cell cycle arrest,[9]; 50 μM BDM,G2 arrest
same,cell cycle arrest,[9]; 200 μM BDM,S phase arrest
same,Chk1 phosphorylation (Ser-345),"Hela cells [10]; 50 μM BDM, 48 h",no signal was observed
same,Chk1 phosphorylation (Ser-345),"Hela cells [10]; 200 μM BDM, 48 h",detectable pChk1 was still present
same,Chk1 phosphorylation (Ser-345),Hela cells [10]; 24 h treatment,dose-dependently phosphorylated
Cn1c2ccccc2c2c3c(c4c5ccccc5n(CCC#N)c4c21)CNC3=O [Gö6976],percentage of apoptotic cells,Hela cells [11],exhibited an increase in the percentage of apoptotic cells
"CON [MX, methoxyamine]","γ-H2AX foci, combination with BDM","Hela cells [4]; 50 μM BDM + methoxyamine 6 mM, 48 h",significantly higher levels of γ-H2AX foci than BDM alone
CN[C@@H]1C[C@H]2O[C@@](C)([C@@H]1OC)n1c3ccccc3c3c4c(c5c6ccccc6n2c5c31)C(=O)N[C@@H]4O [UCN-01],percentage of apoptotic cells,Hela cells [11],exhibited an increase in the percentage of apoptotic cells
same,effect on BDM-induced arrest,[7]; [16],abrogated the arrest
same,time to start of mitotic entry after UCN-01 addition,[7]; [16],4 h
same,delay at metaphase (average),"[7]; 50 μM BDM + UCN-01, controls 37.5±16.7 minutes",89 ± 64.7 min
same,sensitization to killing by BDM (viability),"Hela cells [8]; 200 μM BDM 24 h, then Chk1 inhibitor 24 h",viability was significantly reduced
same,sensitization to killing by BDM,"Hela cells [8]; BDM up to 100 μM 24 h, then UCN-01 100 nM 24 h",did not sensitize
same,"cell viability, UCN-01 alone","Hela cells [8]; UCN-01 alone, any of the assays performed",no discernable effects on cell viability
same,chromosome ultra-structure (electron microscopy),Hela cells [12]; BDM 50 μM + UCN-01,intact chromosomes were clearly visualized
same,chromosome ultra-structure (electron microscopy),Hela cells [12]; BDM 200 μM + UCN-01,highly fragmented
same,chromosome morphology in metaphase spreads,Hela cells [13]; BDM 50 μM + UCN-01,no obvious gross structural defects
same,chromosome morphology in metaphase spreads,Hela cells [13]; BDM 200 μM + UCN-01,extremely abnormal
NC(=O)c1ccc2nc(-c3ccc(Oc4ccc(Cl)cc4)cc3)[nH]c2c1 [pharmacological inhibitor of Chk2],sensitization to killing by BDM,"Hela cells [8]; any BDM concentration (3.125-200 μM), Chk2 inhibitor 100 nM",did not sensitize to killing by any concentration of BDM
"C=CC1=C(C(=O)O)N2C(=O)[C@@H](NC(=O)/C(=N\OCC(=O)O)c3csc(N)n3)[C@H]2SC1 [cefixime, (6R,7R)-7-{[2-(2-amino-1,3-thiazol-4-yl)-2-(carboxymethoxyimino)acetyl]amino}-3-ethenyl-8-oxo-5-thia-1-azabicyclo[4.2.0]oct-2-ene-2-carboxylic acid]",clonogenic capacity / colony-forming ability,SK28 cells [14],reduce cell viability and clonogenic capacity; also recorded: reduction of clonogenic capacity
same,cell viability,SK28 cells [15],reduce cell viability
O=c1cc(N2CCOCC2)oc2c(-c3cccc4c3sc3ccccc34)cccc12 [NU7441],repair of BDM-induced damage (γ-H2AX),"Hela cells [4]; 50 μM BDM + NU7441 10 μM, 48 h",did not block repair of BDM-induced damage
